Measurements taken from paper PMC6395927, “Rufomycin Targets ClpC1 Proteolysis in Mycobacterium tuberculosis and M. abscessus” (Antimicrobial Agents and Chemotherapy, 2019).
Where “and” joins values, the source holds several entries; their conditions need not be identical. Equal values may be shown once.

Assays:
Format in all cases: cell-based, Mycobacterium tuberculosis
[1] = test system: rECU M. tuberculosis strains (clpC1 mutants)
[2] = test system: rRUFI M. tuberculosis strains (clpC1 mutants)
[3] = test system: M. tuberculosis clinical isolates (pan-susceptible, MDR, XDR)

Compound	MIC [1]	MIC [2]	activity against monoresistant, MDR, and XDR strains [3]
O=[N+]([O-])c1cn2c(n1)OC[C@@H](OCc1ccc(OC(F)(F)F)cc1)C2 [PA824, pretomanid]	<0.031 µM	<0.031 µM and 0.041 µM and 0.046 µM	
NNC(=O)c1ccncc1 [INH, isoniazid]		0.22 µM and 0.23 µM and 0.12 µM and 0.24 µM	
capreomycin	0.42 µM and 0.49 µM		
[H]/N=C(/N)N[C@H]1[C@H](O)[C@@H](O)[C@H](O[C@@H]2O[C@@H](C)[C@](O)(C=O)[C@H]2O[C@@H]2O[C@@H](CO)[C@H](O)[C@@H](O)[C@@H]2NC)[C@@H](N/C(N)=N\[H])[C@@H]1O [STR, streptomycin]	0.15 µM and 0.16 µM		
C/C=C/C[C@@H]1NC(=O)[C@H](CC(C)C)N2C(=O)C(C[C@H](C)[C@H]2O)N(C)C(=O)[C@H](C)NC(=O)[C@H](Cc2ccc(O)c([N+](=O)[O-])c2)NC(=O)[C@H](CC(C)C)N(C)C(=O)[C@H](Cc2cn(C(C)(C)C3CO3)c3ccccc23)NC1=O (some centres unmarked) [RUFI, rufomycin I]	<0.01 µM and 0.017 µM		maintains activity
CC(=O)NC[C@H]1CN(c2ccc(N3CCOCC3)c(F)c2)C(=O)O1 [LZD, linezolid]	2.5 µM and 1.9 µM and 1.6 µM		
